Holding throughout (format): cell-based
In test [1] the target is T1, TAS2R44 (Homo sapiens, UniProt P59538, L162M).
T1 construct: RSS tag (first 45 amino acids of rat somatostatin receptor subtype 3, plus EcoRI site) (N); expressed in transfected cells
T1 sequence (P59538 with tags, fused parts or gaps L162M): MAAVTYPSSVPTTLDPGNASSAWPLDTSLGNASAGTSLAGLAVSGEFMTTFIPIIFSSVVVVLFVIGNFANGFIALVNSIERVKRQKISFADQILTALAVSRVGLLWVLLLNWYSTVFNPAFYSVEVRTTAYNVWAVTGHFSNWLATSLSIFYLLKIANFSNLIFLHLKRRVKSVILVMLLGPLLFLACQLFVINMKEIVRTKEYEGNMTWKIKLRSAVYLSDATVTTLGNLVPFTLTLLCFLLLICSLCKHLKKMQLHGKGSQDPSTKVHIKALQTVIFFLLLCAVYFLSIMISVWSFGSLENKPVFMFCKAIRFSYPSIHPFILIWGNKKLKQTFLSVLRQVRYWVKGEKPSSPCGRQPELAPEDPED
The test can be described thus: Fluo-4 calcium assay, HEK293T cells expressing Gα16-gustducin44 and TAS2R44. How it is done:
Cell lines that stably expresses a SABR (TAS2R44, TAS2R1, TAS2R10) was generated by transfecting pcDNA3.1Zeo-SABR into HEK293T/Gα16-gustducin 44 cells (both formed as described in example 1). The host cell line HEK-293T is commercially available from the American Tissue Culture Collection (ATCC), ATCC®# CRL-11268.
The expression of TAS2R44 was evaluated by testing for the presence of a functional response to the known TAS2R44 agonist saccharin (as described in WO 2004/029087) in addition to sucralose, which was determined via automated calcium imaging on the FLIPR-TETRA™ (Molecular Devices, Sunnyvale, Calif., US) as described in example 3. One clone was selected resulting in the HEK293T/Gα16-gustducin 44/TAS2R44 cell line.
Fluo-4AM (Invitrogen, Carlsbad, Calif., US) is a fluorescent indicator of intracellular calcium dynamics (change in concentration) and allows monitoring changes in the calcium concentration, particularly an increase in response to receptor activation occurring after agonist exposure.
(§1) At day 0, the HEK293T cell line expressing Gα16-gustducin44 and a TAS2R bitter taste receptor formed as described in examples 2b or 2c was seeded in antibiotic-free growth medium (standard DMEM with 10% (v/v) heat-inactivated fetal bovine serum, 2 mM L-glutamine[…]) into black wall/clear bottom 96-well plates, coated with poly(ethylenimine) (0.005% v/v) at a concentration of 15,000 cells per well and incubated for 48 hours in humidified atmosphere (37° C., 5% CO2).
(§2) At the time of the assay, the growth medium was discarded and the cells were in humidified atmosphere (37° C., 5% CO2) for 1 hour with 50 μl of loading buffer consisting of 1.5 μM Fluo-4 AM and […] probenicid (Sigma-Aldrich, St. Louis, Mo., US) in DMEM.
(§3) Afterwards, the 96-well plate was washed 5 times with 100 μl of assay buffer (130 mM NaCl, 5 mM KCl, 10 mM HEPES, 2 mM CaCl2, and 5 mM dextrose, pH 7.4) per well, using an automated plate washer (BioTek). The plate was further incubated for 30 minutes at room temperature in the dark to allow for complete de-esterification of the Fluo-4. Afterwards the plate was washed 5 times with 100 μl of assay buffer per well, and reconstituted with 100 μl of assay buffer per well.
(§4) For assay reading, the plate was placed in a Fluorometric Imaging Plate Reader (FLIPR) (FLIPR-TETRA™, Molecular Devices, Sunnyvale, Calif., US), and receptor activation was initiated by addition of 100 μl of a twofold concentrated agonist stock solution (to give the desired agonist end concentration when added to the 100 microliter assay buffer volume), which was prepared in assay buffer.
(§5) Fluorescence was continuously monitored for 20 seconds to give a signal baseline (averaged to give F0) prior to agonist addition and for 120 seconds after agonist addition. The change in signal divided by F0 gives ΔF/F0 indicated in the table, with ΔF being the maximum signal occurring within the 120 seconds minus the minimum signal (occurring within the 120 seconds after agonist addition.
(§6) All data was collected from at least two independent experiments each carried out in triplicate.
(§7) A concentration-response analysis was performed and EC50 values were calculated by nonlinear regression using the function f(x)=(a−d)/(1+(x/C)^nh)+d; with a=minimum signal, d=maximum signal, nh=hill coefficient, C=EC50, and x=agonist concentration. EC50 is the molar concentration of an agonist which produces 50% of the maximum possible effective response for that agonist.
The obtained calcium signals were corrected for the response of cells expressing only the G Protein α subunit (Gα16-gustducin44) and normalized to the fluorescence of cells prior to the stimulus using ΔF/F0 (Fmax−Fmin/F0). […]

Test [2] deals with cells expressing only Gα16gustducin44 but no TAS2 receptor. Put plainly: Fluo-4 calcium assay, negative control cells without bitter receptor. How it is done:
HEK293T/Gα16-gustducin 44 cells were used; they are formed as described in WO 2004/055048. The host cell line HEK-293T is commercially available from the American Tissue Culture Collection (ATCC), ATCC®# CRL-11268
as §1, §2, §3, §4, §5
(§8) The obtained calcium signals were corrected for the response of cells expressing only the G Protein α subunit (Gα16-gustducin44) and normalized to the fluorescence of cells prior to the stimulus using ΔF/F0 (Fmax−Fmin/F0).
To confirm that the cell line formed in example 2c stably expresses the bitter taste receptor TAS2R44, a concentration-response curve for saccharin, a known agonist of TAS2R44, was generated. […] The standard deviation (+/−STD) is also indicated.
As a negative control to determine unspecific signals, each of the applied concentrations of sucralose was applied to cells expressing only Gα16gustducin44.
As a negative control, each agonist and each agonist with the antagonist/test compound (test cpd A) is applied to cells expressing only Gal 6gustducin44 but no TAS2 receptor (see results in table 7 herein below).

The target in test [3] is T2, TAS2R16 (Homo sapiens, UniProt Q9NYV7).
T2 construct: The full length gene of human TAS2R44 was amplified by polymerase chain reaction (PCR) using gene-specific primers that span the entire coding region; RSS tag (first 45 amino acids of rat somatostatin receptor subtype 3) (N); expressed in transfected cells; host or cells: HEK293T cells expressing Gα16-gustducin44
T2 sequence (Q9NYV7 1-291): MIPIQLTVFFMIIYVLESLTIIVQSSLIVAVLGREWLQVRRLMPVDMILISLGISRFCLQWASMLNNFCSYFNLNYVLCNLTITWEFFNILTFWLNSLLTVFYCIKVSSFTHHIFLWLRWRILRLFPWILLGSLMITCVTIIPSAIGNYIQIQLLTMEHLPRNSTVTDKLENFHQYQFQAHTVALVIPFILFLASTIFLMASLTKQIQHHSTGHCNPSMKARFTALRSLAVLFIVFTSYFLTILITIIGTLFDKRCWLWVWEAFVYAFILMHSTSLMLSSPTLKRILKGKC
Put plainly: Fluo-4 calcium assay, cells expressing TAS2R16 (control of antagonist specificity). Here is the method: as §1, §2, §3, §4, §5, §6, §7, §8
All cells were HEK293T cells stably expressing Gα16-gustducin44, or expressing Gα16-gustducin44 and a TAS2R receptor (TAS2R44, TAS2R16).
The method was carried out as described in example 3 subject to the following modifications: The samples were tested with and without test compound A (test cpd A) and the signals were compared. The test compound was dissolved in dimethylsulfoxide (DMSO), and a negative control with equivalent DMSO concentration (0.02%) was performed accordingly to exclude a potential inhibitory effect of the solvent.
As a control of antagonist specificity, the response of an unrelated bitter taste receptor (TAS2R16) to its agonist phenyl-β-glucopyranosides is also detected (see results in table 8 herein below).

Turning to `CC1CCC(CCCC(N)=O)C1(C)C` (stereo not drawn) [test cpd B, 4-(2,2,3-trimethylcyclopentyl)butanamide], the “effect on the response of TAS2R44 to sucralose, in words” value in test [1] (test compound at 25 μM) is “had no effect”. Further, in test [2] (test compound at 25 μM), the “response in cells not expressing TAS2R44 (negative control), in words” value was “did not elicit a response”. Besides, in test [3] (test compound at 25 μM), the “effect on the response of TAS2R16 to phenyl-β-glucopyranoside, in words” value is given as “did not effect the response”.

For `O=C1NS(=O)(=O)c2ccccc21` [Saccharin, saccharin], the “signal in negative control, in words” value in test [2] (host cells expressing only Gα16-gustducin44) is listed as “did not show any significant change in signal”. The “Neg. Control ΔF/F0” value is recorded as 0.016 in test [2] (saccharin 0.0391 mM); 0.014 in test [2] (saccharin 0.0781 mM); 0.014 in test [2] (saccharin 0.1563 mM); 0.012 in test [2] (saccharin 0.3125 mM); 0.014 in test [2] (saccharin 0.6250 mM); 0.014 in test [2] (saccharin 1.2500 mM). Besides, the “Neg. Control ΔF/F0” value in test [2] (saccharin 2.5000 mM) turned out to be 0.013; in test [2] (saccharin 5.0000 mM) it was 0.018; in test [2] (saccharin 10.0000 mM), 0.020.

On to `OC[C@H]1O[C@@H](Oc2ccccc2)[C@H](O)[C@@H](O)[C@@H]1O` [P-β-G, phenyl-β-glucopyranoside], for which the “P-β-G ΔF/F0” value in test [3] (P-β-G alone 0.0391 mM) was found to be 0.012; in test [3] (P-β-G alone 0.0781 mM), 0.213; in test [3] (P-β-G alone 0.1563 mM), 0.926; in test [3] (P-β-G alone 0.3125 mM) it was 1.810; in test [3] (P-β-G alone 0.6250 mM), 2.284; in test [3] (P-β-G alone 1.2500 mM), 2.361. Moreover, the “P-β-G ΔF/F0” value in test [3] (P-β-G alone 2.5000 mM) amounted to 2.578; in test [3] (P-β-G alone 5.0000 mM), 2.693; in test [3] (P-β-G alone 10.0000 mM), 2.876. Further, the EC50 in test [3] (agonist P-β-G alone, TAS2R16) came to 210 ± 20 µM.

With `COC(=O)[C@H](Cc1ccccc1)NC(=O)[C@@H](N)CC(=O)O` [aspartame], the “agonist activity at TAS2R44 (calcium signaling), in words” value in test [1] (cells stably expressing human TAS2R44) is on record as “not to be agonists for TAS2R44”.
